Test results reported in patent US20060069132A1, “Azolecarboxamide herbicides” (priority 2004, published 2006).

Legend:
[1] = test system: cocklebur; experiment: Test B pre-/postemergence herbicide test; type: in vivo, Xanthium strumarium
Outline: (§1)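 Herbicidal effect was judged by eye on a 0–100 scale after plants stood 13 to 15 days in the greenhouse following pre- or postemergence treatment with surfactant-containing formulations.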

[2] = test system: lambsquarters; experiment: Test B pre-/postemergence herbicide test; type: in vivo, Chenopodium album
Outline: (§2)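 Formulation: non-phytotoxic solvent mix with surfactant. Timing: preemergence on seed and postemergence on 2–18 cm plants, applied concurrently. Readout after 13–15 d greenhouse: visual 0–100 control rating against controls.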

[3] = test system: rice; experiment: Test B pre-/postemergence herbicide test; type: in vivo, Oryza sativa; settings: preemergence, 125 g ai/ha; 0 to 100 scale, 0 is no effect, 100 is complete control
Outline: as §2

[4] = test system: large crabgrass; experiment: Test A pre-/postemergence herbicide test; type: in vivo, Digitaria sanguinalis
Outline: (§3)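 Both application timings were run together: directed soil spray over freshly planted seeds in sandy loam, and runoff spray onto 2–10 cm seedlings. Evaluation after ~10 days in greenhouse used a 0–100 visual scale versus untreated controls.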

[5] = test system: velvetleaf; experiment: Test B pre-/postemergence herbicide test; type: in vivo, Abutilon theophrasti
Outline: as §2

[6] = test system: small flower umbrella sedge; experiment: Test B flooded paddy test; type: in vivo, Cyperus difformis; settings: 1000 g ai/ha, visual rating, scale 0 to 100 (0 no effect, 100 complete control), 13 to 15 days
Outline: (§4)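 Treated at 2-leaf (paddy) or 1–4-leaf, 2–18 cm (postemergence); greenhouse 13–15 d; visual score vs control, 0 none to 100 complete control; dash = not tested.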

[7] = test system: giant foxtail; experiment: Test B pre-/postemergence herbicide test; type: in vivo, Setaria faberi
Outline: as §2

[8] = test system: barnyardgrass; experiment: Test B flooded paddy test; type: in vivo, Echinochloa crus-galli; settings: 1000 g ai/ha, visual rating, scale 0 to 100 (0 no effect, 100 complete control), 13 to 15 days
Outline: as §4

[9] = test system: rice; experiment: Test B flooded paddy test; type: in vivo, Oryza sativa; settings: 1000 g ai/ha, visual rating, scale 0 to 100 (0 no effect, 100 complete control), 13 to 15 days
Outline: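 Scale 0–100: zero equals no visible effect, 100 complete control, judged by eye relative to controls. Timing: 13 to 15 days in greenhouse post-treatment. Growth stage at spraying: two leaves (paddy) or one to four leaves, 2–18 cm (postemergence).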

[10] = test system: velvetleaf; experiment: Test A pre-/postemergence herbicide test; type: in vivo, Abutilon theophrasti
Outline: as §3

[11] = test system: redroot pigweed; experiment: Test A pre-/postemergence herbicide test; type: in vivo, Amaranthus retroflexus
Outline: as §3

[12] = test system: morningglory; experiment: Test B pre-/postemergence herbicide test; type: in vivo, Ipomoea coccinea
Outline: as §1

[13] = test system: large crabgrass; experiment: Test B pre-/postemergence herbicide test; type: in vivo, Digitaria sanguinalis
Outline: as §2

[14] = test system: giant foxtail; experiment: Test A pre-/postemergence herbicide test; type: in vivo, Setaria faberi
Outline: as §3

[15] = test system: blackgrass; experiment: Test B postemergence herbicide test; type: in vivo, Alopecurus myosuroides; settings: scale 0 (no effect) to 100 (complete control)
Outline: as §4

[16] = test system: morningglory; experiment: Test A pre-/postemergence herbicide test; type: in vivo, Ipomoea spp.
Outline: as §3

[17] = test system: wheat; experiment: Test B postemergence herbicide test; type: in vivo, Triticum aestivum; set-up: key to Wheat plant response rating: 0 = no effect, 100 = complete control; settings: scale 0 (no effect) to 100 (complete control)
Outline: (§5)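 Formulated test chemicals went onto postemergence plants measuring 2 to 18 cm, at one to four leaves. For the paddy assay, species had reached two leaves. Scoring took place 13–15 days later by eye, relative to untreated plants, using 0 for no effect up to 100 for full control.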

[18] = test system: Surinam grass; experiment: Test B pre-/postemergence herbicide test; type: in vivo, Urochloa decumbens
Outline: as §2

[19] = test system: barnyardgrass; experiment: Test A pre-/postemergence herbicide test; type: in vivo, Echinochloa crus-galli
Outline: as §3

[20] = test system: ducksalad; experiment: Test B flooded paddy test; type: in vivo, Heteranthera limosa; settings: 1000 g ai/ha, visual rating, scale 0 to 100 (0 no effect, 100 complete control), 13 to 15 days
Outline: as §4

[21] = test system: barnyardgrass; experiment: Test B pre-/postemergence herbicide test; type: in vivo, Echinochloa crus-galli
Outline: as §1

[22] = test system: pigweed; experiment: Test B pre-/postemergence herbicide test; type: in vivo, Amaranthus retroflexus
Outline: as §2

[23] = test system: wild oat; experiment: Test B postemergence herbicide test; type: in vivo, Avena fatua; settings: scale 0 (no effect) to 100 (complete control)
Outline: as §5

[24] = test system: corn; experiment: Test B pre-/postemergence herbicide test; type: in vivo, Zea mays
Outline: as §2

[25] = Postemergence, 500 g ai/ha, visual rating after 13 to 15 days, scale 0 (no effect) to 100 (complete control)
[26] = Preemergence, 500 g ai/ha, scale 0 to 100
[27] = postemergence, 125 g ai/ha, visual rating, scale 0 (no effect) to 100 (complete control)
[28] = preemergence, 125 g ai/ha, 0 to 100 scale, 0 is no effect, 100 is complete control
[29] = Postemergence, 500 g ai/ha, 0 to 100 scale, 0 no effect, 100 complete control
[30] = Postemergence, 2000 g ai/ha, 0 to 100 scale, 0 no effect, 100 complete control
[31] = Preemergence, 500 g ai/ha, visual rating, 0 to 100 scale (0 no effect, 100 complete control)
[32] = Preemergence, 2000 g ai/ha, 0 to 100 scale, 0 no effect, 100 complete control
[33] = Postemergence, 500 g ai/ha, visual rating after 13 to 15 days
[34] = postemergence, 125 g ai/ha, visual rating

CCOC(=O)c1cc(NC(=O)c2cc(C(C)(C)C)nn2CC)ccc1F [Compound 89]
25: Plant response rating, Crabgrass, Large [4, 30]
90: Plant response rating, Cocklebur [1, 25]
0: Cocklebur plant response rating [1, 26] | Plant response rating, Cocklebur [1, 28] | Plant response rating, Lambsquarters [2, 28] | Plant response rating, Rice [3] | Crabgrass, Large plant response rating [4, 31] | Crabgrass, Large plant response rating [4, 32] | Plant response rating, Velvetleaf [5, 28] | Foxtail, Giant plant response rating [7, 26] | Plant response rating, Foxtail, Giant [7, 28] | Velvetleaf plant response rating [10, 31] | Pigweed plant response rating [11, 31] | Plant response rating, Morningglory [12, 28] | Plant response rating, Crabgrass, Large [13, 28] | Foxtail, Giant plant response rating [14, 31] | Foxtail, Giant plant response rating [14, 32] | Blackgrass plant response rating [15, 34] | Morningglory plant response rating [16, 31] | Plant response rating, Surinam Grass [18, 28] | Barnyardgrass plant response rating [19, 31] | Barnyardgrass plant response rating [19, 32] | Ducksalad plant response rating [20] | Barnyardgrass plant response rating [21, 26] | Plant response rating, Barnyardgrass [21, 28] | Plant response rating, Pigweed [22, 28] | Corn plant response rating [24, 26] | Plant response rating, Corn [24, 28]
40: Plant response rating, Pigweed [22, 25]
80: Crabgrass, Large plant response rating [13, 26]
60: Plant response rating, Lambsquarters [2, 25] | Sedge, Umbrella plant response rating [6]
70: Cocklebur plant response rating [1, 27]
10: Barnyardgrass plant response rating [8] | Rice plant response rating [9] | Velvetleaf plant response rating ([10]; Preemergence, 2000 g ai/ha, visual rating, 0 to 100 scale (0 no effect, 100 complete control)) | Pigweed plant response rating [11, 32] | Crabgrass, Large plant response rating [13, 27] | Plant response rating, Blackgrass [15, 33] | Morningglory plant response rating [16, 32] | Surinam Grass plant response rating [18, 27] | Barnyardgrass plant response rating [21, 27] | Corn plant response rating [24, 27]
50: Plant response rating, Velvetleaf [5, 25] | Plant response rating, Morningglory [12, 25]
30: Lambsquarters plant response rating [2, 27] | Velvetleaf plant response rating [5, 27] | Plant response rating, Pigweed [11, 30] | Plant response rating, Oat, Wild [23, 33]
20: Crabgrass, Large plant response rating [4, 29] | Plant response rating, Foxtail, Giant [7, 25] | Foxtail, Giant plant response rating [7, 27] | Velvetleaf plant response rating [10, 29] | Plant response rating, Velvetleaf [10, 30] | Pigweed plant response rating [11, 29] | Morningglory plant response rating [12, 27] | Plant response rating, Crabgrass, Large [13, 25] | Foxtail, Giant plant response rating [14, 29] | Plant response rating, Foxtail, Giant [14, 30] | Morningglory plant response rating [16, 29] | Plant response rating, Wheat [17, 33] | Wheat plant response rating [17, 34] | Plant response rating, Surinam Grass [18, 25] | Barnyardgrass plant response rating [19, 29] | Plant response rating, Barnyardgrass [19, 30] | Plant response rating, Barnyardgrass [21, 25] | Pigweed plant response rating [22, 27] | Oat, Wild plant response rating [23, 34] | Plant response rating, Corn [24, 25]
15: Plant response rating, Morningglory [16, 30]
